Reference: ChEMBL document CHEMBL1201862, “PubChem BioAssay data set” (2004)
Calls of active or inactive are those of the source.

Key:
[1] = biological target: T1, Delta-type opioid receptor (Homo sapiens, UniProt P41143); assay: HTS Image-Based Screen for Antagonists of the DOR Receptor. [Related pubchem assays (depositor defined):AID1777, AID1785, AID1786, AID2133]; assay type: functional
Mu-type opioid receptor = Mu-type opioid receptor (Homo sapiens, UniProt P35372); assay: HTS Image-Based Screen for Agonists of the MOR Receptor. [Related pubchem assays (depositor defined):AID1777, AID1785, AID1786, AID2133]; assay type: functional;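 note: imaging of beta-arrestin GFP recruitment into spots after receptor activation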
[2] = tested on: Streptococcus sp. 'group A'; assay: Streptococcus pyogenes SK(-)GAS viability under kanamycin – luminescence, BacTiterGlo, confirmation, counter-screen for streptokinase expression inhibitor project, dose response (AID 1900); assay type: functional, organism-based
[3] = biological target: T1, Delta-type opioid receptor; assay: HTS Image-Based Screen for Agonists of the DOR Receptor. [Related pubchem assays (depositor defined):AID1777, AID1786, AID2133]; assay type: functional
Streptokinase A = biological target: T2, Streptokinase A (Streptococcus pyogenes serotype M1, UniProt P10520); assay: viability-normalized secreted streptokinase activity reduction – plasminogen activation absorbance, OD405, dose response (AID 1914); assay type: functional, Streptococcus pyogenes M1 GAS;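 note: secreted streptokinase activity via plasminogen activation per viability signal from cell pellet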
T2 sequence (P10520 whole entry): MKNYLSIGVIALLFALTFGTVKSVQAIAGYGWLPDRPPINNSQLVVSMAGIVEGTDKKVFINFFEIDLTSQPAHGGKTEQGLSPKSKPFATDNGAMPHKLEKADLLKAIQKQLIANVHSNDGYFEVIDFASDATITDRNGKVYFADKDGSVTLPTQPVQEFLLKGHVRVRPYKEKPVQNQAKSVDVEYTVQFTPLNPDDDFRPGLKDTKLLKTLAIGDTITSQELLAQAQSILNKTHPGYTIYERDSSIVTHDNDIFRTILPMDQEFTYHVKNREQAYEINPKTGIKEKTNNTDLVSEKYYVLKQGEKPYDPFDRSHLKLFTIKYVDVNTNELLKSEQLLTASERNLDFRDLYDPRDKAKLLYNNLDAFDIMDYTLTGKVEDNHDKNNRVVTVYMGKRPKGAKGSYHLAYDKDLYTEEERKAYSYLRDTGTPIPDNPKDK

[4] = biological target: T3, Kappa-type opioid receptor (Homo sapiens, UniProt P41145); assay type: functional
Beta-galactosidase = Beta-galactosidase (Escherichia coli, UniProt Q8VNN2); assay type: functional
[5] = biological target: T3, Kappa-type opioid receptor; assay type: functional; remark: listed apart in the source
Streptococcus = assay: GAS UMAA2166 growth inhibition – luminescence, BacTiterGlo, counter-screen for streptokinase expression inhibitor project, dose response (AID 1915); assay type: functional, organism-based;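 note: potency for reduction of bacterial viability or growth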
Cysteine protease ATG4B = biological target: T4, Cysteine protease ATG4B (Homo sapiens, UniProt Q9Y4P1); assay type: functional;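 note: Fluorescence-based dose-response confirmation assay measuring inhibition of ATG4B activity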
T4 sequence (Q9Y4P1 whole entry): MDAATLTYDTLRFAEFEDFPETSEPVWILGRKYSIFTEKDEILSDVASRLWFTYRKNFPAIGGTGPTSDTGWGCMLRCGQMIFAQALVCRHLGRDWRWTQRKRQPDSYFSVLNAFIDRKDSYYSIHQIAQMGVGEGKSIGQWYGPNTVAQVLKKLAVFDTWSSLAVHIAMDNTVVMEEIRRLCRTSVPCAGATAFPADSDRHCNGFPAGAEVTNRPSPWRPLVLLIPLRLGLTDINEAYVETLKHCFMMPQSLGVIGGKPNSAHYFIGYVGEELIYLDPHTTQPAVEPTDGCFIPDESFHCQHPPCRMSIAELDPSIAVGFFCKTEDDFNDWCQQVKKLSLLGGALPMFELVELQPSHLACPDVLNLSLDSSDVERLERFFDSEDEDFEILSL

Phospholipase A2 = Phospholipase A2 (Homo sapiens, UniProt P04054); assay type: functional;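 note: confirmatory dose-response counterscreen on phospholipase A2, testing hits that came from an ultra-high-throughput screen for ATG4B inhibitors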
[6] = biological target: T5, Mannose-6-phosphate isomerase (Homo sapiens, UniProt P34949); assay: phosphomannose isomerase inhibition – biochemical, fluorescence intensity, confirmation (AID 1535)
T5 sequence (P34949 whole entry): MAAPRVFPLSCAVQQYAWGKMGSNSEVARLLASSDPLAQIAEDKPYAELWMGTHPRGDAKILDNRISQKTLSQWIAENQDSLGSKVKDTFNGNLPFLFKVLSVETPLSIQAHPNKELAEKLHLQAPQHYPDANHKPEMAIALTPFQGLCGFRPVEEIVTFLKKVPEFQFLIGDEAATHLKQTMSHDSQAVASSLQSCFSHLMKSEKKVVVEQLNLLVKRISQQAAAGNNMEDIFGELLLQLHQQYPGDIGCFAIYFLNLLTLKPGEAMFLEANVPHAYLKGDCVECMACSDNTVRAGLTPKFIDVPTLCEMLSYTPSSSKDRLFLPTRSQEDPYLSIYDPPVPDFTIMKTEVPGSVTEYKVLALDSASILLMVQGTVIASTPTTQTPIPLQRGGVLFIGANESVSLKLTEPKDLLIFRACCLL

Phosphomannomutase 2 = biological target: T6, Phosphomannomutase 2 (Homo sapiens, UniProt O15305); assay: Counter screen SAR assay for PMM2 inhibitors via a fluorescence intensity assay. [Related pubchem assays (depositor defined):AID1545, AID1574]
T6 sequence (O15305 whole entry): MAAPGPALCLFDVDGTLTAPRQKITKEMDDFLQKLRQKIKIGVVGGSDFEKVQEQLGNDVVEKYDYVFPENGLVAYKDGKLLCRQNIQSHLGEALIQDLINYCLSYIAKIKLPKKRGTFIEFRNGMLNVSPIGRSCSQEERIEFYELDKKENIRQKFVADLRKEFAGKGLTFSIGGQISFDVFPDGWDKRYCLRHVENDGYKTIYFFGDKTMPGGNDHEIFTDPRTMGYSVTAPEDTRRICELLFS

[7] = biological target: T7, Phosphoethanolamine/phosphocholine phosphatase (Homo sapiens, UniProt Q8TCT1); assay: SAR assay for compounds that inhibit PHOSPHO1. [Related pubchem assays (depositor defined):AID1545, AID1565, AID1574]
T7 sequence (Q8TCT1 whole entry): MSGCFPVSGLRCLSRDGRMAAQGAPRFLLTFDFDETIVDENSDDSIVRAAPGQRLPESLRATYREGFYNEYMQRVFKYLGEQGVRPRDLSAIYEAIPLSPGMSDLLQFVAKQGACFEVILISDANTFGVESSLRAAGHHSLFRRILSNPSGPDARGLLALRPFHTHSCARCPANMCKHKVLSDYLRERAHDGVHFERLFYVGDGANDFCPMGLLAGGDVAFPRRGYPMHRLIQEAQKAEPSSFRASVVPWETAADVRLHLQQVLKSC

[8] = biological target: T8, Alkaline phosphatase, tissue-nonspecific isozyme (Homo sapiens, UniProt P05186); assay: potency against alkaline phosphatase TNAP – biochemical, luminescent, dose response, SAR follow-up (AID 1056)
T8 sequence (P05186 whole entry): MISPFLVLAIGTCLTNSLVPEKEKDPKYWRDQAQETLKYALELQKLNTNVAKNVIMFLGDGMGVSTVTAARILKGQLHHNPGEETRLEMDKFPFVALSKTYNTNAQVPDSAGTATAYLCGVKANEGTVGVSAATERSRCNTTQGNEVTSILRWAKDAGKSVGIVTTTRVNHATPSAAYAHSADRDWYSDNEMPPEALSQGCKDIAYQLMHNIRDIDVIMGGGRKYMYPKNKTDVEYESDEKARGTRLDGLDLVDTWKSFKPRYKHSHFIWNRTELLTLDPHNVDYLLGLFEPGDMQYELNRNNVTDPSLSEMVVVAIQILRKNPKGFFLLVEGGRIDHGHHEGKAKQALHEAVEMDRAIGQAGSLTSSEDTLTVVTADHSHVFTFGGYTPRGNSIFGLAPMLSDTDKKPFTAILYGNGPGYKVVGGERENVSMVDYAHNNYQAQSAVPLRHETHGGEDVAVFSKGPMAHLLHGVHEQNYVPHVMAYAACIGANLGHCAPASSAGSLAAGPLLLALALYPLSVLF

[9] = Luminescence Cell-Based Dose Retest to Confirm Inhibitors of Cancer Stem Cells. [Related pubchem assays (depositor defined):AID2717, AID2721]; assay type: functional, Homo sapiens; settings: Homo sapiens
[10] = viability loss of HMLE_sh_eGFP cells – cell-based, luminescence, counter-screen for HMLE_sh_ECad selective toxicity project, dose response (AID 463074); assay type: functional, Homo sapiens;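 note: HMLE human mammary epithelial cells expressing control shRNA against eGFP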
cells [11] = assay type: functional, cell-based
cells [12] = assay type: functional, cell-based; remark: listed apart in the source

T1 sequence (P41143 whole entry): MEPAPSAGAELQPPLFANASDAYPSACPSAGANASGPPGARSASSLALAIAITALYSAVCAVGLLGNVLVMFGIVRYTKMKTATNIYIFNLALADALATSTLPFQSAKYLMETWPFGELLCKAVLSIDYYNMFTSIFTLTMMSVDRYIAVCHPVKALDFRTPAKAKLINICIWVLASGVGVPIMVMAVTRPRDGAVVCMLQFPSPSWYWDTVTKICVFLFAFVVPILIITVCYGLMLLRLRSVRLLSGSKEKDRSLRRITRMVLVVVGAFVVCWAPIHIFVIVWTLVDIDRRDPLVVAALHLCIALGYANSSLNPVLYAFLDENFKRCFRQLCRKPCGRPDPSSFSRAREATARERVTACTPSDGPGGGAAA
Phospholipase A2, sequence (P04054 whole entry): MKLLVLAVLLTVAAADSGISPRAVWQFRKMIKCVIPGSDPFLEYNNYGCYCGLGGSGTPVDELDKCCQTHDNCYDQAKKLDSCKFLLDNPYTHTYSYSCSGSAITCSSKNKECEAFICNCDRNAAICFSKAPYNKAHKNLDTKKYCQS
T3 sequence (P41145 whole entry): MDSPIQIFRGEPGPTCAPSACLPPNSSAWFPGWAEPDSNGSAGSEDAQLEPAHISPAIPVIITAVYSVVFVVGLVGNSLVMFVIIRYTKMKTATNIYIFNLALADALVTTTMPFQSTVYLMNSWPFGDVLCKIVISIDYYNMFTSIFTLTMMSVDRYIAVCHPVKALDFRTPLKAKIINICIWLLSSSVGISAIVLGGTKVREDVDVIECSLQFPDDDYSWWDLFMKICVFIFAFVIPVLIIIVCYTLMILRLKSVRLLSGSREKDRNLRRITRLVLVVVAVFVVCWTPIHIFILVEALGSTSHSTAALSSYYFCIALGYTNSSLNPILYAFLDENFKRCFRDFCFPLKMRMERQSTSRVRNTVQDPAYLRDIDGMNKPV
Mu-type opioid receptor, sequence (P35372 whole entry): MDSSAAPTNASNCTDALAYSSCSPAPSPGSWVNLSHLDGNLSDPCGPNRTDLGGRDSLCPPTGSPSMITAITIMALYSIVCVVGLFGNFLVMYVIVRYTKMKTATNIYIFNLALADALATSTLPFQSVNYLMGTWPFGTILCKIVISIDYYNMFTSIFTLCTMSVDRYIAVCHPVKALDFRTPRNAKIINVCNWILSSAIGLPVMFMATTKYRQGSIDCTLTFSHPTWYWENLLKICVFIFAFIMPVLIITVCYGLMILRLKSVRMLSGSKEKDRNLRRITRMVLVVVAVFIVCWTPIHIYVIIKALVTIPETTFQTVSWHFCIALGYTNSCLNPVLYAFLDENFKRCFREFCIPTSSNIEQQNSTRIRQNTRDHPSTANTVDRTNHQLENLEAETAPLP
Beta-galactosidase, sequence (Q8VNN2 whole entry): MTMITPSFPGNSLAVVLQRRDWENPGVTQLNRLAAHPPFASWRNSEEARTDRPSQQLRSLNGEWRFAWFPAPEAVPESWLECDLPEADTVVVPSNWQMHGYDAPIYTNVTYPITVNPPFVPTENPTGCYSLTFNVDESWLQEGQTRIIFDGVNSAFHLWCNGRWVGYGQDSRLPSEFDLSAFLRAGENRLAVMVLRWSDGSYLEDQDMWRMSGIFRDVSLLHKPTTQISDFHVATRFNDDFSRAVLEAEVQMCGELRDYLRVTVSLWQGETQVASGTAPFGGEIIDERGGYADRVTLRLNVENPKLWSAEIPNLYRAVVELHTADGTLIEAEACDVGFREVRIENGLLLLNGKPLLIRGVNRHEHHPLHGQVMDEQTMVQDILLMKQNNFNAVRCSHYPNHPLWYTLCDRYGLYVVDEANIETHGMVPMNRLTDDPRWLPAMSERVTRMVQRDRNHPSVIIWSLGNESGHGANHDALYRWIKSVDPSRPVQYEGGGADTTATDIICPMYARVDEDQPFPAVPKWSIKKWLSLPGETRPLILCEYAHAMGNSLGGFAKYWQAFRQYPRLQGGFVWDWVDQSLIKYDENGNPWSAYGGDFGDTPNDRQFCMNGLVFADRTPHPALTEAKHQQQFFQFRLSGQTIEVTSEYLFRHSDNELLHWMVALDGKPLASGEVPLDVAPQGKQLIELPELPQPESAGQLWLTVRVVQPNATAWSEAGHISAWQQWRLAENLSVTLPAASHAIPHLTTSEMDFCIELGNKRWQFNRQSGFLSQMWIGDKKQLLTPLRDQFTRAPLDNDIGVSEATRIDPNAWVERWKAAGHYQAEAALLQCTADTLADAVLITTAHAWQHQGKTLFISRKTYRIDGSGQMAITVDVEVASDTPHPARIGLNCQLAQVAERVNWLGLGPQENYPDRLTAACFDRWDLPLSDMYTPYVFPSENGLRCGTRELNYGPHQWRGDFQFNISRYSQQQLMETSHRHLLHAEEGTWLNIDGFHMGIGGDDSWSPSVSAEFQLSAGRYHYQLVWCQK

Structure (SMILES): CCCc1nc2oc3c(Cl)ncnc3c2c2c1CCCC2
- IC50 [1]: > 32 µM (inactive)
- EC50 (Mu-type opioid receptor): > 32 µM (inactive)
- EC50 [2]: > 150 µM (not active)
- EC50 [3]: > 32 µM (inactive)
- EC50 (Streptokinase A): > 150 µM (not active)
- IC50 [4]: 4.64 µM (active)
- EC50 (Beta-galactosidase): > 31.5 µM (inactive)
- IC50 [5]: > 32 µM
- EC50 (Streptococcus): > 150 µM (not active)

Structure (SMILES): Cc1cc(C)nc(SCc2ccc(C(=O)N/N=C3\CC(C)CC(C)(C)C3)cc2)n1 (stereo not drawn)
- IC50 (Cysteine protease ATG4B): 22.7 µM (inactive)
- IC50 (Phospholipase A2): 17.9 µM (active)

Structure (SMILES): CCOC(=O)c1ccc(-n2sc3ccccc3c2=O)cc1
- IC50 [6]: 23.6 µM (active)
- IC50 (Phosphomannomutase 2): > 100 µM (inactive)
- IC50 [7]: 1.24 µM (inactive)
- IC50 [8]: > 100 µM (inactive)

Structure (SMILES): Cc1onc(-c2ccccc2)c1C(=O)Nc1sc2c(c1C#N)CCC(C)C2 (stereo not drawn)
- AC50 [9]: 1.12 µM (active)
- AC50 [10]: 26.3 µM (active)

Structure (SMILES): OC(COc1ccc(CNCCc2ccccc2F)cc1)CN1CCCCC1 (stereo not drawn)
- AC50 [9]: > 195 µM (inactive)
- AC50 [10]: 33.9 µM (active)
- IC50 (cells [11]): > 29.9 µM (inactive)
- EC50 (cells [12]): > 29.9 µM (inactive)

Structure (SMILES): O=c1c2ccc(F)cc2sn1-c1ccc(Cl)c(Cl)c1
- IC50 [6]: > 50 µM (inactive)
- IC50 (Phosphomannomutase 2): > 100 µM (inactive)
- IC50 [7]: > 100 µM (inactive)

Structure (SMILES): Fc1ccc(CCN=C(S)Nc2ccc(F)c(Cl)c2)cc1
- IC50 (Cysteine protease ATG4B): 12.4 µM (active)
- IC50 (Phospholipase A2): 8.38 µM (active)

Structure (SMILES): COc1ccc(-c2cc([C@H]3[C@H]4C=CC[C@@H](C)[C@@H]4C(=O)N3Cc3ccccc3)ccc2F)cc1
- AC50 [9]: 2.76 µM (active)
- AC50 [10]: 22 µM (active)
